{"source": "patent US20100104565A1", "about": "“COMBINATIONS COMPRISING DMXAA FOR THE TREATMENT OF CANCER” (ANTISOMA RESEARCH LIMITED, priority 2005, published 2010)", "key": {"[1]": {"details": "with thalidomide, cited from earlier work"}, "[2]": {"test_system": "glucoronidation and 6-methylhydroxylation of DMXAA in mouse liver microsomes", "details": "diclofenac 100 μM; cited from earlier work"}, "[3]": {"test_system": "glucoronidation and 6-methylhydroxylation of DMXAA in human liver microsomes", "details": "diclofenac 100 μM; cited from earlier work"}, "[4]": {"details": "diclofenac 100 mg/kg i.p., cited from earlier work"}, "[5]": {"test_system": "A549 (lung carcinoma) xenografts", "assay": "A549 human lung carcinoma xenograft study in nude athymic mice", "type": "in vivo", "from_the_text": "Xenografts for human lung cancer are set-up in groups of nude, athymic mice. The cell line selected was A549 (ATCC number CCL-185), a lung carcinoma."}, "human tumours": {"test_system": "human tumours", "details": "phase I monotherapy, cited from earlier work"}}, "note": "Like-named read-outs stand apart in the source and are kept apart here.", "data": [{"molecule": "O=C1CCC(N2C(=O)c3ccccc3C2=O)C(=O)N1", "note": "(stereo not drawn) [Thalidomide, thalidomide]", "values": [{"measurement": "increase of the AUC of DMXAA", "setting": "[1]; liver", "result": 1.8, "unit": "times"}, {"measurement": "increase of the AUC of DMXAA", "setting": "[1]; plasma", "result": 1.8, "unit": "times"}, {"measurement": "increase of the AUC of DMXAA", "setting": "[1]; spleen", "result": 1.8, "unit": "times"}, {"measurement": "increase of the AUC of DMXAA", "setting": "[1]; tumour", "result": "three times"}]}, {"molecule": "O=C(O)Cc1ccccc1Nc1c(Cl)cccc1Cl", "note": "[diclofenac]", "values": [{"measurement": "inhibition of 6-methylhydroxylation of DMXAA", "setting": "[2]", "result": "> 54", "unit": "%"}, {"measurement": "inhibition of glucoronidation of DMXAA", "setting": "[2]", "result": "> 70", "unit": "%"}, {"measurement": "inhibition of 6-methylhydroxylation of DMXAA", "setting": "[3]", "result": "> 54", "unit": "%"}, {"measurement": "inhibition of glucoronidation of DMXAA", "setting": "[3]", "result": "> 70", "unit": "%"}, {"measurement": "increase in the plasma DMXAA AUC", "setting": "[4]; female mice", "result": 31, "unit": "%"}, {"measurement": "increase in DMXAA T1/2", "setting": "[4]; male and female mice, P<0.05", "result": "threefold increase"}, {"measurement": "increase in the plasma DMXAA AUC", "setting": "[4]; male mice", "result": 24, "unit": "%"}]}, {"molecule": "Cc1ccc2c(=O)c3cccc(CC(=O)O)c3oc2c1C", "note": "[DMXAA, 5,6-dimethylxanthenone-4-acetic acid]", "values": [{"measurement": "Drug deaths", "setting": "[5]; A549 xenografts, DMXAA 21 mg/kg, Erbitux 33 mg/kg by injection, deaths/mice per group", "result": "2/10"}, {"measurement": "Response CR", "setting": "[5]; Complete Response (cure; undetectable tumour over two weeks), Table 2", "result": 0}, {"measurement": "Response PD", "setting": "[5]; Progressive Disease (≧50% increase in tumour size), Table 2", "result": "2/10"}, {"measurement": "Response SD", "setting": "[5]; Stable Disease (does not satisfy criteria for PR or PD), Table 2", "result": 16}, {"measurement": "Tumour Growth Delay", "setting": "[5]; difference in days for treated versus control tumours to quadruple in volume", "result": 16, "unit": "days"}, {"measurement": "TTP", "setting": "[5]; median time to disease progression", "result": 16, "unit": "days"}, {"measurement": "Regression Duration", "setting": "[5]; number of days that tumour volume is less than the original treatment volume", "result": 0, "unit": "days"}, {"measurement": "Median VQT (Range; days)", "setting": "[5]; tumour volume quadrupling time, A549 xenografts", "result": 48, "unit": "days"}, {"measurement": "tumour blood flow (dynamic MRI)", "setting": "human tumours; well-tolerated doses", "result": "significant reduction in tumour blood flow"}, {"measurement": "tumour responses", "setting": "human tumours", "result": "very few tumour responses"}]}]}
